Assay results published in PubChem BioAssay (NCI).
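Method: 48-hour compound exposure of cells in 96-well plates, five concentrations, linear interpolation of endpoints. The concentration for 50% growth inhibition is given as GI50. TGI marks complete inhibition of growth.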

How the values were obtained:
Test in all cases: growth of human tumour cells (NCI), 48 h
786-0 renal = tested on: 786-0 renal
A498 renal = tested on: A498 renal
A549 NSCLC = tested on: A549 NSCLC
ACHN renal = tested on: ACHN renal
BT-549 breast = tested on: BT-549 breast
CAKI-1 renal = tested on: CAKI-1 renal
CCRF-CEM leukemia = tested on: CCRF-CEM leukemia
COLO 205 colon = tested on: COLO 205 colon
DU-145 prostate = tested on: DU-145 prostate
EKVX NSCLC = tested on: EKVX NSCLC
HCC-2998 colon = tested on: HCC-2998 colon
HCT-116 colon = tested on: HCT-116 colon
HCT-15 colon = tested on: HCT-15 colon
HL-60(TB) leukemia = tested on: HL-60(TB) leukemia
HOP-62 NSCLC = tested on: HOP-62 NSCLC
HOP-92 NSCLC = tested on: HOP-92 NSCLC
HS 578T breast = tested on: HS 578T breast
HT29 colon = tested on: HT29 colon
IGROV1 ovarian = tested on: IGROV1 ovarian
K-562 leukemia = tested on: K-562 leukemia
KM12 colon = tested on: KM12 colon
LOX IMVI melanoma = tested on: LOX IMVI melanoma
M14 melanoma = tested on: M14 melanoma
MALME-3M melanoma = tested on: MALME-3M melanoma
MCF7 breast = tested on: MCF7 breast
MDA-MB-231 breast = tested on: MDA-MB-231 breast
MDA-MB-435 = tested on: MDA-MB-435
MOLT-4 leukemia = tested on: MOLT-4 leukemia
NCI-H226 lung = tested on: NCI-H226 lung
NCI-H23 lung = tested on: NCI-H23 lung
NCI-H460 lung = tested on: NCI-H460 lung
NCI-H522 lung = tested on: NCI-H522 lung
NCI/ADR-RES ovarian = tested on: NCI/ADR-RES ovarian
OVCAR-3 ovarian = tested on: OVCAR-3 ovarian
OVCAR-4 ovarian = tested on: OVCAR-4 ovarian
OVCAR-5 ovarian = tested on: OVCAR-5 ovarian
OVCAR-8 ovarian = tested on: OVCAR-8 ovarian
PC-3 prostate = tested on: PC-3 prostate
RPMI-8226 leukemia = tested on: RPMI-8226 leukemia
RXF 393 renal = tested on: RXF 393 renal
SF-268 CNS = tested on: SF-268 CNS
SF-295 CNS = tested on: SF-295 CNS
SF-539 CNS = tested on: SF-539 CNS
SK-MEL-2 melanoma = tested on: SK-MEL-2 melanoma
SK-MEL-28 melanoma = tested on: SK-MEL-28 melanoma
SK-MEL-5 melanoma = tested on: SK-MEL-5 melanoma
SK-OV-3 ovarian = tested on: SK-OV-3 ovarian
SN12C renal = tested on: SN12C renal
SNB-19 CNS = tested on: SNB-19 CNS
SNB-75 CNS = tested on: SNB-75 CNS
SR leukemia = tested on: SR leukemia
SW-620 colon = tested on: SW-620 colon
T-47D breast = tested on: T-47D breast
TK-10 renal = tested on: TK-10 renal
U251 CNS = tested on: U251 CNS
UACC-257 melanoma = tested on: UACC-257 melanoma
UACC-62 melanoma = tested on: UACC-62 melanoma
UO-31 renal = tested on: UO-31 renal

`CCCS(=O)(=O)Nc1ccc(F)c(C(=O)c2c[nH]c3ncc(Cl)cc23)c1F` was tested, and the GI50 (786-0 renal) was 10.7 µM, the TGI (786-0 renal) was 74.9 µM and the GI50 (A498 renal) was 5.14 µM. For the same molecule, the TGI (A498 renal) was 24 µM, the GI50 (A549 NSCLC) was 9.87 µM and the TGI (A549 NSCLC) was 56.5 µM. It also gave a GI50 (ACHN renal) of 3.78 µM, a TGI (ACHN renal) of 66.4 µM and a GI50 (BT-549 breast) of 13.3 µM. It also gave a TGI (BT-549 breast) of 57.9 µM, a GI50 (CAKI-1 renal) of 3.65 µM and a TGI (CAKI-1 renal) of 56.9 µM. The GI50 (CCRF-CEM leukemia) was 16.6 µM, the TGI (CCRF-CEM leukemia) was 99.1 µM and the GI50 (COLO 205 colon) was 0.116 µM. It also gave a TGI (COLO 205 colon) of 17.3 µM, a GI50 (DU-145 prostate) of 7.55 µM and a TGI (DU-145 prostate) of 80.6 µM. The GI50 (EKVX NSCLC) was 18.3 µM, the TGI (EKVX NSCLC) was 80.9 µM and the GI50 (HCC-2998 colon) was 17.7 µM. For the same molecule, the TGI (HCC-2998 colon) was 72.4 µM, the GI50 (HCT-116 colon) was 6.21 µM and the TGI (HCT-116 colon) was 62.7 µM. For the same molecule, the GI50 (HCT-15 colon) was 6.62 µM, the TGI (HCT-15 colon) was > 97.3 µM and the GI50 (HL-60(TB) leukemia) was 20 µM. The TGI (HL-60(TB) leukemia) was 57.4 µM, the GI50 (HOP-62 NSCLC) was 10.2 µM and the TGI (HOP-62 NSCLC) was 65.8 µM. The GI50 (HOP-92 NSCLC) was 3.2 µM, the TGI (HOP-92 NSCLC) was 15.4 µM and the GI50 (HS 578T breast) was 3.9 µM. The TGI (HS 578T breast) was 26.7 µM, the GI50 (HT29 colon) was 0.2 µM and the TGI (HT29 colon) was 21.8 µM. For the same molecule, the GI50 (IGROV1 ovarian) was 5 µM, the TGI (IGROV1 ovarian) was 75.4 µM and the GI50 (K-562 leukemia) was 9.87 µM. For the same molecule, the TGI (K-562 leukemia) was > 81.5 µM, the GI50 (KM12 colon) was 11.4 µM and the TGI (KM12 colon) was > 79.8 µM. For the same molecule, the GI50 (LOX IMVI melanoma) was 2.05 µM, the TGI (LOX IMVI melanoma) was 31.1 µM and the GI50 (M14 melanoma) was 0.109 µM. It also gave a TGI (M14 melanoma) of 5.18 µM, a GI50 (MALME-3M melanoma) of 0.0281 µM and a TGI (MALME-3M melanoma) of 0.174 µM. It also gave a GI50 (MCF7 breast) of 20.2 µM, a TGI (MCF7 breast) of 69.9 µM and a GI50 (MDA-MB-231 breast) of 9.09 µM. It also gave a TGI (MDA-MB-231 breast) of 33.7 µM, a GI50 (MDA-MB-435) of 0.337 µM and a TGI (MDA-MB-435) of 29.6 µM. For the same molecule, the GI50 (MOLT-4 leukemia) was 14.7 µM, the TGI (MOLT-4 leukemia) was > 83 µM and the GI50 (NCI-H226 lung) was 16.2 µM. The TGI (NCI-H226 lung) was 78.1 µM, the GI50 (NCI-H23 lung) was 20.7 µM and the TGI (NCI-H23 lung) was > 91.6 µM. It also gave a GI50 (NCI-H460 lung) of 5.92 µM, a TGI (NCI-H460 lung) of 50.3 µM and a GI50 (NCI-H522 lung) of 8.34 µM. For the same molecule, the TGI (NCI-H522 lung) was 31.5 µM, the GI50 (NCI/ADR-RES ovarian) was 14.8 µM and the TGI (NCI/ADR-RES ovarian) was > 90.3 µM. It also gave a GI50 (OVCAR-3 ovarian) of 15.4 µM, a TGI (OVCAR-3 ovarian) of 58.7 µM and a GI50 (OVCAR-4 ovarian) of 9.74 µM. The TGI (OVCAR-4 ovarian) was 75.7 µM, the GI50 (OVCAR-5 ovarian) was 23.3 µM and the TGI (OVCAR-5 ovarian) was > 92.8 µM. The GI50 (OVCAR-8 ovarian) was 8.81 µM, the TGI (OVCAR-8 ovarian) was 61.8 µM and the GI50 (PC-3 prostate) was 10.6 µM. The TGI (PC-3 prostate) was 77.6 µM, the GI50 (RPMI-8226 leukemia) was 25.2 µM and the TGI (RPMI-8226 leukemia) was > 100 µM. It also gave a GI50 (RXF 393 renal) of 5.23 µM, a TGI (RXF 393 renal) of 22.4 µM and a GI50 (SF-268 CNS) of 13.5 µM. For the same molecule, the TGI (SF-268 CNS) was 73 µM, the GI50 (SF-295 CNS) was 5.35 µM and the TGI (SF-295 CNS) was 45.6 µM. The GI50 (SF-539 CNS) was 9.1 µM, the TGI (SF-539 CNS) was 57.4 µM and the GI50 (SK-MEL-2 melanoma) was 4.37 µM. For the same molecule, the TGI (SK-MEL-2 melanoma) was 16.4 µM, the GI50 (SK-MEL-28 melanoma) was 0.109 µM and the TGI (SK-MEL-28 melanoma) was 9.62 µM. For the same molecule, the GI50 (SK-MEL-5 melanoma) was 1.24 µM, the TGI (SK-MEL-5 melanoma) was 19 µM and the GI50 (SK-OV-3 ovarian) was 3.76 µM. For the same molecule, the TGI (SK-OV-3 ovarian) was 36.5 µM, the GI50 (SN12C renal) was 7.66 µM and the TGI (SN12C renal) was 84.9 µM. It also gave a GI50 (SNB-19 CNS) of 29.7 µM, a TGI (SNB-19 CNS) of 99.7 µM and a GI50 (SNB-75 CNS) of 4.9 µM. For the same molecule, the TGI (SNB-75 CNS) was 24.8 µM, the GI50 (SR leukemia) was 4.68 µM and the TGI (SR leukemia) was 48 µM. The GI50 (SW-620 colon) was 22.6 µM, the TGI (SW-620 colon) was 87.3 µM and the GI50 (T-47D breast) was 8.55 µM. The TGI (T-47D breast) was 65 µM, the GI50 (TK-10 renal) was 6.3 µM and the TGI (TK-10 renal) was 35.9 µM. The GI50 (U251 CNS) was 9.08 µM, the TGI (U251 CNS) was 60.5 µM and the GI50 (UACC-257 melanoma) was 0.129 µM. It also gave a TGI (UACC-257 melanoma) of 1.18 µM, a GI50 (UACC-62 melanoma) of 0.0639 µM and a TGI (UACC-62 melanoma) of 2.14 µM. For the same molecule, the GI50 (UO-31 renal) was 6.4 µM and the TGI (UO-31 renal) was 66.3 µM.
